Reference: patent publication US20260284079A1, “LIPID PRODRUGS OF ALLOPR[…] USES THEREOF” (Seaport Therapeutics, Inc., priority 2023, published 2026)

Columns and labels:
[1] = Single ascending dose (SAD) study, PK (Example 1 Part 1)
[2] = Multiple ascending dose (MAD) study, PK (Example 1 Part 3); conditions: allopregnanolone and combined allopregnanolone
[3] = TSST study safety and tolerability (Example 2); type: in vivo, human
Protocol: A double-blind, placebo-controlled study was performed in 80 healthy participants to determine the effects of a single dose of Compound 1 in a validated and standardized behavioral challenge, the Trier Social Stress Test (TSST). The TSST is a reliable behavioral model used to examine the neurobiological response to acute stress in humans, whereby an acute stress (and associated acute stress response) is induced under experimentally controlled conditions. The TSST induces stress through public speaking. It incorporates social evaluation and unpredictability, by obliging the person to speak in front of an unresponsive audience and is further followed by a surprise mental arithmetic test. The TSST combines elements of a social-evaluative threat and uncontrollability to produce a consistent and robust physiological and psychological stress response in humans. On the day of the study, the participant was tasked with a speech prompt, for which they had 3 minutes to prepare. The participant was then required to present the speech for 5 minutes to a panel while under the pretense of being recorded. Following the speech, participants were given an unexpected mental arithmetic task. The TSST is more fully described in Allen A et al., Neurobiol. Stress (2017), February; 6:113-126.
The study included a validation cohort and a randomized cohort. The validation cohort (n=10) was given placebo for the purposes of validating the TSST and study endpoints. The randomized cohort […] were randomized and stratified by sex to placebo or 375 mg of Compound 1 in a 1:1 ratio. The cohorts are described in Table 14. An overview of the TSST study design is also depicted in FIG. 4C.
The objective of the study was to evaluate the efficacy of Compound 1 vs. placebo in blunting the response to endpoints measured during and after the TSST procedure. The primary efficacy endpoint was the change from baseline (before TSST procedure) to the peak (maximum change) in salivary cortisol levels as measured before, during, and after the TSST procedure. The primary outcome for determining this was salivary cortisol levels. The key secondary outcomes were be the Numerical Rating Scale (NRS) for stress, anxiety, fear, embarrassment, and excitement. Additional secondary outcomes were the State Trait Anxiety Index (STAI), and blood pressure. Safety and tolerability (i.e., incidence, severity, and duration of treatment-emergent adverse events (TEAEs), serious adverse events (SAEs), and incidence of other clinically relevant signs) were also monitored. Prior to the TSST, a post-dose sample was collected for pharmacokinetic analysis.

[4] = Video-oculography (VOG), saccades; type: in vivo, human; conditions: day 1, all doses tested (250, 375, 500 mg)
Text: Video-oculography (VOG) is a non-invasive, visual method of measuring horizontal, vertical, and torsional components involved in eye tracking, making use of a head-mounted mask equipped with cameras. VOG was used to measure 3 assessment metrics: horizontal saccades (movement of eyes towards a point of fixation), horizontal anti-saccades (movement of eyes away from a point of fixation), and horizontal and vertical pursuits (fixation of eyes on a moving object).
Binocular (both eyes) movements viewing were measured during the saccades test. During this 1-min trial, the visual target (small square) will jump from 0° to 10° to the right or to the left in a pseudorandom sequence. Duration of the target on screen vary pseudo-randomly from 1,500 to 2,000 ms to minimize anticipation of the subject. Then the visual target will be extinguished during 200 ms before the next move starting from the center. The participant is instructed to track the target on screen from center to side and from side to center without anticipation. The antisaccades test is identical to the saccades test in its procedure (with 10° jumps of the target) except that there is no extinction of the target. […]
Binocular movements viewing were measured during the pursuit tests. […]

[5] = Stanford Sleepiness Scale (SSS) and MOAA/S; type: in vivo, human
Text: Part 1 Exploratory Objectives: To characterize the pharmacodynamic (PD) effects, and the PK/PD relationship, of Compound 1 on select clinical outcome assessments (COAs) of central nervous system effects following ascending single oral doses of Compound 1 (e.g., Stanford Sleepiness Scale (SSS), Modified Observer's Assessment of Alertness/Sedation Scale (MOAA/S), Sleep Quality Scale (SQS)). Part 1 Exploratory Endpoints: Changes from Baseline in SSS, MOAA/S, and/or SQS.
Part 3 Exploratory Objective: to characterize the PD effects, and the PK/PD relationships of Compound 1 on select effects following multiple oral doses of Compound 1. Part 3 Exploratory Endpoints: changes from baseline in qEEG, SSS, MOAA/S, the SQS, Cogstate, Body Sway, and video-oculography (VOG) assessment.
Participants were assessed using metrics as outlined below. The SSS is a one item self-report questionnaire that measures and quantifies progressive steps in the level of sleepiness throughout the day. Subjects select one of seven statements that best represents their level of perceived sleepiness at a given timepoint, as depicted in Table 7.
The MOAA/S is a clinical outcome assessment that measures a subject's level of alertness/sedation as determined by a rater; in its modified form, it uses only the responsiveness component of the original Observer's Assessment of Alertness/Sedation Scale. Responsiveness, as a measure of sedation, was assessed and scored on a scale of 0 to 5 as outlined in Table 8.

CCCCCCCC(=O)OCC(COC(=O)CCCCCCC)OC(=O)CC(C)CC(=O)OCOC(=O)O[C@@H]1CC[C@@]2(C)[C@@H](CC[C@@H]3[C@@H]2CC[C@]2(C)[C@@H](C(C)=O)CC[C@@H]32)C1 (some centres unmarked) [Compound 1]
dose proportionality of mean plasma allopregnanolone and combined allopregnanolone concentrations ([1]; doses up to 560 mg): increased at a dose proportional rate
oral bioavailability ([1]; human, oral): high oral bioavailability
dose proportionality of several PK parameters ([1]; range of 750 to 1000 mg): greater than dose-proportional increase
maximal concentrations and exposure values, combined allopregnanolone compared to allopregnanolone ([1]; single ascending doses): at least 10 times higher
accumulation upon multiple dosing ([2]; once daily): minimal accumulation
time to steady state ([2]; once daily administration): Day 2 and Day 3
tolerability in the TSST study ([3]; single 375 mg dose): well tolerated
TEAE dizziness ([3]; single 375 mg, placebo 3%): 20%
TEAE headache ([3]; single 375 mg, placebo 7.7%): 7.3%
TEAE somnolence ([3]; single 375 mg, placebo 13%): 29%
time of maximum drop of saccade peak velocity [4]: 4 hour post-dose
change from baseline in SSS and MOAA/S ([5]; Cohort 6 (Part 3), 500 mg, compared to lower doses): greater magnitude of effect from baseline
change from baseline in SSS and MOAA/S score ([5]; Cohorts 1, 2, 2b (Part 1), single doses): dose-dependent increase from baseline in the Stanford Sleepiness Scale (SSS) and a decrease from baseline in the MOAA/S score
change from baseline in SSS and MOAA/S ([5]; Cohorts 4, 5, 7, 8 (Part 3), 250 mg and 375 mg, early days of dosing): low magnitude of change from baseline
time of maximum changes in SSS and MOAA/S ([5]; Part 1): 3-5 hours post-dose
time of return to baseline levels of SSS and MOAA/S ([5]; Part 1, all treatment groups): ≤ 12 hours post-dose
difference in mean change from baseline between fed (HF or LF) and fasted states ([5]; cohort 3, 140 mg): no apparent difference
